From PMC3320733 (International Journal of Antimicrobial Agents, 2012) come the findings set out here.

Where no end group is shown, it is not given here.

Common to all, as to assay type: cell-based
Series [1] has as its system Pseudomonas aeruginosa PAO1.
The test system of series [2] is human red blood cells. In words: Haemolytic effects on human red blood cells. The following applies: 1 h.
Series [3] deals with Bacillus subtilis 168.

Regarding FFGKVLKLIRKIF-NH2 [DASamP1], the “MIC Pseudomonas aeruginosa” value in series [1] was greater than 100 µM. For the same substance, the “HL50 (concentration at which 50% of red blood cells were lysed)” value in series [2] amounted to 25 µM. For the same substance, the “MIC Bacillus subtilis” value in series [3] is greater than 100 µM.
In the case of “FFHHIFRGIVHVGKTIHRLVTG [Piscidin 1] [listing 1 of 2 here]”, the “MIC Pseudomonas aeruginosa” value in series [1] was 50 µM. Further, the “MIC Bacillus subtilis” value in series [3] was 12.5 µM.
On to “FFHHIFRGIVHVGKTIHRLVTG [Piscidin 1] [listing 2 of 2 here]”, for which the “HL50 (concentration at which 50% of red blood cells were lysed)” value in series [2] was found to be 20 µM.
In the case of GFKDLLKGAAKALVKTVLF-NH2 [Ascaphin-8], the “MIC Pseudomonas aeruginosa” value in series [1] was found to be 12.5 µM. Further, in series [2], the “HL50 (concentration at which 50% of red blood cells were lysed)” value amounted to 45 µM. Moreover, the “MIC Bacillus subtilis” value in series [3] stood at 6.25 µM.
As for “GLLGLLGSVVSHVVPAIVGHF-NH2 [Maculatin 1.3] [listing 1 of 2 here]”, the “MIC Pseudomonas aeruginosa” value in series [1] is greater than 100 µM. Besides, the “MIC Bacillus subtilis” value in series [3] was 25 µM.
With “GLLGLLGSVVSHVVPAIVGHF-NH2 [Maculatin 1.3] [listing 2 of 2 here]”, in series [2], the “HL50 (concentration at which 50% of red blood cells were lysed)” value was found to be 25 µM.
